These results are taken from patent US20040166079A1, “N-Lauroyl amino acid composition for slimming the human body” (priority 2003, published 2004).

For the assay, the system named is normal human dermal fibroblasts. Nature of the assay: Measurement in vitro of the production of hyaluronic acid (STAINS ALL, 630 nm). Format: cell-based. The conditions noted are these: incubation concentration 10 ng/ml; 5 days. The method, then:
Glycosaminoglycans (GAGs) are the major proteoglycans of the dermis and play an essential role in maintaining the integrity of the skin. Hyaluronic acid is a major nonsulphated GAG which plays an essential role in the hydration of the skin by its capacity to fix up to 1000 times its weight as water. The effect of the products on the hyaluronic acid level was evaluated by a technique in vitro.
The hyaluronic acid level is measured in cultures of normal human dermal fibroblasts. The cells are incubated for 5 days in the presence of the products solubilized in the incubation medium. At the end of this incubation, the extracellular media in which the hyaluronic acid is secreted are collected. The hyaluronic acid is stained with a specific stain, STAINS ALL ((1-ethyl-2-[3-(1-ethylnaphtho-[1,2-d]thiazolin-2-ylidene)-2-methylpropenyl]naphtho-[1,2-d]thiazolium bromide, SIGMA), which interacts with it to produce a change in the absorption spectrum between 620 and 660 nm; the measurement is made by spectrophotometry. A hyaluronic acid series is prepared in parallel. […]
Evaluation of the effects: After 5 days of incubation in the presence of the products, the incubation media are collected and incubated in the presence of STAINS ALL. […] The quantification is made by spectrophotometry at 630 nm. […] The results are expressed as extracellular hyaluronic acid relative to the control.

Turning to “EGF: reference in the hyaluronic acid production test, 10 ng/ml”, the “Extracellular hyaluronic acid produced (% relative to the control)” value was determined as 133%.
